Source: patent US20240024346A1, “CD73 INHIBITORS AND PHARMACEUTICAL USES THEREOF” (RISEN (SUZHOU) PHARMA TECH CO., LTD., priority 2020, published 2024)
Where two headings read alike, the source gives them in different places.

Legend:
CD73 protein = molecular target: T1, CD73 protein (Homo sapiens, UniProt P21589); experiment: CD73 enzyme inhibition assay (Malachite Green Phosphate Detection Kit); assay type: biochemical; settings: for IC50: Tris-HCl pH 7.3, read-out: Potency (IC50 class) in CD73 enzyme assay; for inhibitory activity in the CD73 enzyme assay: result in words
T1 construct: purchased Novoprotein C446
T1 sequence (P21589 27-549): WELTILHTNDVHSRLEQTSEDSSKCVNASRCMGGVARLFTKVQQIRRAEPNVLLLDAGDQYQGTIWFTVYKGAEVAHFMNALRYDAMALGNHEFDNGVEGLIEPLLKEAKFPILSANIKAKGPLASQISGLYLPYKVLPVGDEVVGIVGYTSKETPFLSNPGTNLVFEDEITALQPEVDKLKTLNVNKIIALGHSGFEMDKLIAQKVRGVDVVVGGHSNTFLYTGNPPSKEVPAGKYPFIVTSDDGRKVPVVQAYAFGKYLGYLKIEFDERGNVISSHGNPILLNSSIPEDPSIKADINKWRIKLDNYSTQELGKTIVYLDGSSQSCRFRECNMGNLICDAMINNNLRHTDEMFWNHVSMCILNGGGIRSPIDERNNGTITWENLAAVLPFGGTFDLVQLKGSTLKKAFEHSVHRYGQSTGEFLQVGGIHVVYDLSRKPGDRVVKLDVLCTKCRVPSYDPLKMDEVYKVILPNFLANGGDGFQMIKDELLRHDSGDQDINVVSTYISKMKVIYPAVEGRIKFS
Procedure: To evaluate the inhibitory effect of selected compounds on CD73, Malachite Green Phosphate Detection Kit (R&D, Cat #DY996) was used. Briefly, compounds were dissolved and diluted to the desired concentration using phosphate-free buffer (Tris-HCl, pH 7.3). 25 μL of the compound solution was added to an equal volume of CD73 protein solution (2×concentration, 0.5 μg/mL, Novoprotein, Cat #C446), followed by a 5-minute incubation at room temperature. 10 μL of Malachite Green Reagent A was added to each well, mixed thoroughly and incubated for 10 minutes at room temperature. 10 μL of Malachite Green Reagent B was then added to each well, mixed thoroughly and incubated for 20 minutes at room temperature. Finally, the optical density of each well was determined using a microplate reader set to 620 nm.

[1] = Pharmacokinetic evaluation in ICR mice after intravenous injection; assay type: in vivo; settings: mouse; ICR male mice, 1.0 mg/kg intravenous, plasma
Procedure: A test compound (1.0 mg/kg) was administered to fasted ICR male mice via intravenous injection, and blood samples were collected at time points of 0.08, 0.25, 0.5, 1, 2, 4, 6, 8 and 24 h after the administration. Plasma sample was separated by centrifugation (8000 rpm) and stored at −80° C. until the sample was analyzed. Concentrations of the test compound in the plasma were determined by HPLC-MS/MS: the plasma was dispensed into appropriate tubes containing internal standard and methanol or acetonitrile. The tubes were mixed vigorously for 3 minutes to achieve deproteinization and then centrifuged at 8000 rpm for 5 minutes. The supernatant was transferred to an autosampler vial, injected into the chromatographic system, and quantified on MS/MS detector. Pharmacokinetic parameters including AUC0-4, Cmax, Tmax, t1/2, MRT, Cl and Vd were calculated using WinNonlin 6.3 software. Table 3 summarizes key PK parameters for test compounds (AUC(0-t): the area under the curve from time 0 to time t; AUC(0-∞): the area under the curve from time 0 to infinity; t1/2: Half-life; CL: clearance; C0: the concentration of drug in blood if the drug molecules enter the circulation and are distributed immediately (i.e., at time 0)).

[2] = molecular target: T2, Recombinant human 5′-nucleotidase (hCD73) (Homo sapiens, UniProt P21589); experiment: CD73 enzyme inhibition assay (recombinant hCD73, AMP substrate, phosphate detection); assay type: biochemical; settings: 37° C. 20 min, absorbance 635 nm
T2 sequence (P21589 27-549): T1 sequence (P21589 27-549)
Procedure: Test compound solution preparation: Stock solution of a test compound was prepared in DMSO at 10 mM concentration. A series of preset 10-concentration solutions of a test compound were prepared by diluting the stock solution in 5-fold gradient dilution with DMSO.
Assay buffer (1×): […] Tris, 25 mM NaCl, 1 mM MgCl2, pH 7.5, 0.005% Tween-20 (freshly prepared, and ready for use).
An aliquot of 0.25 μL of compound solution or DMSO (blank control) was added to each test well of a micro well plate. Recombinant human 5′-nucleotidase (hCD73) was diluted to 1 nM in assay buffer; and an aliquot of 25 μL hCD73 (1 nM) solution was added to the corresponding wells of the plate. The contents of the well were well-mixed, and the plate was covered with sealing film, centrifuged at 1000 rpm for 30 sec., followed by incubation at room temperature for 15 min. AMP, the substrate, was diluted to 60 μM concentration in the assay buffer. To each reaction well was added 25 μL of AMP solution. After mixing well, the plate was covered with sealing film, centrifuged at 1000 rpm for 30 sec., and incubated at 37° C. for 20 min. The absorbance signal (end point) was measured on SPARK plate reader at 635 nm (See PiColorLock™ Gold Phosphate Detection System (Abcam) test kit for reference).
The reaction wells containing CD73 enzyme, substrate AMP and DMSO (no compound) were used as positive control, and the reaction wells containing substrate AMP and DMSO but no CD73 enzyme were used as negative control. The percent (%) inhibition at each concentration of compound was calculated based on and relative to the signal in the High and Low control wells contained within each assay plate. The High control wells were considered as 0% inhibition, and the low control wells, which didn't contain any compound but rather DMSO (final concentration=0.5%), as 100% inhibition. IC50 values were obtained using GraphPad Prism software.

human T cell = experiment: CD73 cellular assay (T cell stimulation assay: CellTiter-Glo proliferation and IFN-γ ELISA); assay type: cell-based; settings: human T cells, anti-CD3/CD28, AMP + EHNA, 72 hours
Procedure: Day 2, human T cell seeding: (a) washing the coated plate (from Day 1) with sterilized PBS buffer (2×100 uL); (b) re-suspending T cells and adjusting cell density to 0.5×10^6 cells/mL with growth media (X-VIVO 15+1% Pen/strep+1% glutamine), and seeding 100 μL/well (50,000 cells/well) in 96-well plates; (c) diluting CD28 antibody for 8× working concentration (8 μg/mL) with growth media, giving 1 μg/mL of the final concentration, followed by addition of CD28 antibody (25 μL) to cell plate; incubating the plates under 5% CO2 at 37° C. for 60 min; (d) adding compound (25 μL, 8×dilution with growth media) to cell plate, and incubating the plates under 5% CO2 at 37° C. for 60 min; (e) adding AMP (25 μL) and EHNA (25 μL, 8×dilution with growth media) to cell plate; (f) incubating the plates under 5% CO2 at 37° C. for 72 hours.
Day 5, collecting cell growth media and testing cell proliferation: (a) centrifuging the cell plate (1,000 rpm) for 5 min; (b) harvesting 150 μL of the cell culture media from each well to 96 well plate, followed by measurement of IFN-r expression by ELISA test; (c) taking a portion of the cell culture supernatant for cytokine analysis, removing the remaining supernatant, followed by addition of fresh growth media (X-VIVO 15+1% Pen/strep+1% glutamine, 100 μL); (d) adding Celltiter-Glo solution (50 μL) into each well for the measurement of cell proliferation by: (e) incubating the plates at room temperature for 10 min on a shaker; (f) transferring 100 μL solution into 96-well white plate and taking the readout of the Celltiter-Glo data using a TECAN Reader.

## O=P(O)(O)CP(=O)(O)OC[C@H]1O[C@@H](n2cnc3c(NCc4ccccc4)nc(Cl)nc32)C(O)C1O (stereo partly drawn) [Compound 1]
CD73 protein
  IC50: < 10 nM

## O=P(O)(O)CP(=O)(O)OC[C@H]1O[C@@H](n2cnc3c(NCc4cccc5ccccc45)nc(Cl)nc32)C(O)C1O (stereo partly drawn) [Compound 6]
CD73 protein
  IC50: < 10 nM

## O=P(O)(O)CP(=O)(O)OC[C@H]1O[C@@H](n2cnc3c(NCc4ccc5ccccc5c4)nc(Cl)nc32)C(O)C1O (stereo partly drawn) [Compound 7]
CD73 protein
  IC50: < 10 nM

## C[C@]12C[C@@H]3C[C@](C)(C1)C[C@@](Nc1nc(Cl)nc4c1ncn4[C@@H]1O[C@H](COP(=O)(O)CP(=O)(O)O)C(O)C1O)(C3)C2 (stereo partly drawn) [Compound 9]
CD73 protein
  IC50: < 10 nM

## CCCCCCCCCCCCOC(=O)Nc1nc(Cl)nc2c1ncn2[C@@H]1O[C@H](COP(=O)(O)CP(=O)(O)O)C(O)C1O (stereo partly drawn) [Compound 15]
CD73 protein
  IC50: < 10 nM

## O=C(CC12CC3CC(CC(C3)C1)C2)Nc1nc(Cl)nc2c1ncn2[C@@H]1O[C@H](COP(=O)(O)CP(=O)(O)O)C(O)C1O (stereo partly drawn) [Compound 16]
CD73 protein
  IC50: 10 to 100 nM

## CCCCCCCCCCCCN(CCCCCCCCCCCC)c1nc(Cl)nc2c1ncn2[C@@H]1O[C@H](COP(=O)(O)CP(=O)(O)O)C(O)C1O (stereo partly drawn) [Compound 19]
CD73 protein
  IC50: > 100 nM

## O=P(O)(O)CP(=O)(O)OC[C@H]1O[C@@H](n2cnc3c(NC45CC6CC(CC(C6)C4)C5)nc(Cl)nc32)C(O)C1O (stereo partly drawn) [Compound 22]
CD73 protein
  IC50: < 10 nM

## CC1(C)[C@@H]2CC[C@@]1(C)C(OC(=O)Nc1nc(Cl)nc3c1ncn3[C@@H]1O[C@H](COP(=O)(O)CP(=O)(O)O)C(O)C1O)C2 (stereo partly drawn) [Compound 23]
CD73 protein
  IC50: 10 to 100 nM

## O=P(O)(O)CP(=O)(O)OC[C@H]1O[C@@H](n2cnc3c(N4CCC5(CCCCC5)C4)nc(Cl)nc32)C(O)C1O (stereo partly drawn) [Compound 31]
CD73 protein
  IC50: < 10 nM

## O=P(O)(O)CP(=O)(O)OC[C@H]1O[C@@H](n2cnc3c(N4C5CCC4CC(O)C5)nc(Cl)nc32)C(O)C1O (stereo partly drawn) [Compound 51]
CD73 protein
  IC50: < 10 nM

## C[C@H](Nc1cc(Cl)nc2c1cnn2[C@@H]1O[C@H](COP(=O)(O)CP(=O)(O)O)[C@@H](O)[C@H]1O)c1ccccc1F [Compound a, AB680, reference compound]
[1]
  clearance: 0.7 mL/min/kg

## O=P(O)(O)CP(=O)(O)OC[C@H]1O[C@@H](n2cnc3c(N4CC(c5ccccc5)c5ccccc54)nc(Cl)nc32)C(O)C1O (stereo partly drawn) [Compound d-38]
[2]
  IC50: 1.92 nM

## O=P(O)(O)CP(=O)(O)CC[C@H]1O[C@@H](n2cnc3c(NCc4ccccc4)nc(Cl)nc32)C(O)C1O (stereo partly drawn) [a-1]
CD73 protein
  inhibitory activity in the CD73 enzyme assay: showed inhibitory activity

## C[C@]12C[C@@H]3C[C@](C)(C1)C[C@@](Nc1nc(Cl)nc4c1ncn4[C@@H]1O[C@H](CCP(=O)(O)CP(=O)(O)O)C(O)C1O)(C3)C2 (stereo partly drawn) [a-9]
CD73 protein
  inhibitory activity in the CD73 enzyme assay: showed inhibitory activity

## O=P(O)(O)CP(=O)(O)CC[C@H]1O[C@@H](n2cnc3c(N4CCC5(CCCCC5)C4)nc(Cl)nc32)C(O)C1O (stereo partly drawn) [a-31]
CD73 protein
  inhibitory activity in the CD73 enzyme assay: showed inhibitory activity

## O=P(O)(O)CP(=O)(O)OC[C@H]1O[C@@H](n2cnc3c(N4CCC5(CCCc6ccccc65)C4)nc(Cl)nc32)[C@@H](O)C1O (stereo partly drawn) [d-6]
[1]
  clearance: 2.55 mL/min/kg

## O=P(O)(O)CP(=O)(O)OC[C@H]1O[C@@H](n2cnc3c(N4CC5(CCCCC5)c5ccccc54)nc(Cl)nc32)[C@@H](O)C1O (stereo partly drawn) [d-7]
[1]
  clearance: 0.0833 mL/min/kg
[2]
  IC50: 1.8 nM

## O=P(O)(O)CP(=O)(O)OC[C@H]1O[C@@H](n2cnc3c(N4CCC5(CCc6ccccc65)C4)nc(Cl)nc32)C(O)C1O (stereo partly drawn) [d-8]
[2]
  IC50: 0.75 nM

## O=P(O)(O)CP(=O)(O)OC[C@H]1O[C@@H](n2cnc3c(N4CC5(Cc6ccccc6C5)C4)nc(Cl)nc32)[C@@H](O)C1O (stereo partly drawn) [d-9]
[1]
  clearance: 0.75 mL/min/kg
[2]
  IC50: 0.73 nM

## O=P(O)(O)CP(=O)(O)OC[C@H]1O[C@@H](n2cnc3c(N4CC5(CCCc6ccccc65)C4)nc(Cl)nc32)[C@@H](O)C1O (stereo partly drawn) [d-12]
[1]
  clearance: 1.7 mL/min/kg
[2]
  IC50: 0.4 nM

## O=P(O)(O)CP(=O)(O)OC[C@H]1O[C@@H](n2cnc3c(N4CC5(CCCC5)c5ccccc54)nc(Cl)nc32)[C@@H](O)C1O (stereo partly drawn) [d-13]
[1]
  clearance: 0.05 mL/min/kg
[2]
  IC50: 1.5 nM

## O=P(O)(O)CP(=O)(O)OC[C@H]1O[C@@H](n2cnc3c(N4CC5(CCC5)c5ccccc54)nc(Cl)nc32)[C@@H](O)C1O (stereo partly drawn) [d-20]
[1]
  clearance: 0.133 mL/min/kg
[2]
  IC50: 1.29 nM

## O=P(O)(O)CP(=O)(O)OC[C@H]1O[C@@H](n2cnc3c(N4CCC5(CC4)Cc4ccccc4C5)nc(Cl)nc32)[C@@H](O)C1O (stereo partly drawn) [d-21]
[1]
  clearance: 2.28 mL/min/kg
[2]
  IC50: 1.42 nM

## O=P(O)(O)CP(=O)(O)OC[C@H]1O[C@@H](n2cnc3c(N4CC5(CCCCCC5)c5ccccc54)nc(Cl)nc32)[C@@H](O)C1O (stereo partly drawn) [d-22]
[1]
  clearance: 0.1 mL/min/kg

## O=P(O)(O)CP(=O)(O)OC[C@H]1O[C@@H](n2cnc3c(N4CCC(c5ccccc5)(c5ccccc5)C4)nc(Cl)nc32)C(O)C1O (stereo partly drawn) [d-33]
Human T cell; read-out: EC50 CTG (CellTiter-Glo, cell proliferation)
  EC50: 4.07 nM
Human T cell; read-out: EC50 IFN-γ (ELISA, indicator for T-cell activity)
  EC50: 2.53 nM
[2]
  IC50: 1.76 nM

## O=P(O)(O)CP(=O)(O)OC[C@H]1O[C@@H](n2cnc3c(N4CC(c5ccccc5)(c5ccccc5)C4)nc(Cl)nc32)C(O)C1O (stereo partly drawn) [d-35]
[2]
  IC50: 1.39 nM

## O=P(O)(O)CP(=O)(O)OC[C@H]1O[C@@H](n2cnc3c(N4CC(c5ccccc5)C(c5ccccc5)C4)nc(Cl)nc32)C(O)C1O (stereo partly drawn) [d-36]
[2]
  IC50: 1.86 nM
